From patent publication US20090099214A1, “Organic Compounds” (Novartis AG, priority 2006, published 2009)
pKi: −log10 of the molar value. Structures can show the parent of a compound that is named as a salt.

Molecular target: adenosine A2a receptor (Homo sapiens, UniProt P29274)
Test: adenosine A2a receptor agonist test (method of Murphree et al / Hannon et al)
Type: binding
Protocol: Compounds of formula I and their pharmaceutically acceptable salts are useful as pharmaceuticals. In particular, they activate the adenosine A2a receptor activation, i.e. they act as A2a receptor agonists.
For example, the compounds of Examples 7, 8, 17, 19, and 38 have Ki values of 0.003, 0.002, 0.011, 0.008, and 0.007 μM respectively.

adenosine A2a receptor, sequence (P29274 whole entry): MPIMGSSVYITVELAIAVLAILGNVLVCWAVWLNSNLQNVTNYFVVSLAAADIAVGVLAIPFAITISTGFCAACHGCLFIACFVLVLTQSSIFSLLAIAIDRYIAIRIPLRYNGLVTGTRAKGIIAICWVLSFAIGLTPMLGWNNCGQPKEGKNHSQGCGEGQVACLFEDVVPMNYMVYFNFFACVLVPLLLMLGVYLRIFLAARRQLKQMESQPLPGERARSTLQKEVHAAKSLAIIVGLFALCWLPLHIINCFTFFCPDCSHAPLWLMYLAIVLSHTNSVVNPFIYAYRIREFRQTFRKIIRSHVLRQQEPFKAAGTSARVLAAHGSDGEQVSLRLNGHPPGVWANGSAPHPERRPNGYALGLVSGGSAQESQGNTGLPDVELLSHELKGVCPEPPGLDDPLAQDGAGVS

Row | SMILES | pKi
1 | CCC(=O)N[C@H]1C[C@@H](n2cnc3c(NCC(c4ccc(OC)cc4)c4ccc(OC)cc4)nc(N4CC[C@@H](NC(=O)N[C@@H]5CCNC5)C4)nc32)[C@H](O)[C@@H]1O [Example 7, N-((1S,2R,3S,4R)-4-{6-[2,2-Bis-(4-methoxy-phenyl)-ethylamino]-2-[(R)-3-((R)-3-pyrrolidin-3-ylureido)-pyrrolidin-1-yl]-purin-9-yl}-2,3-dihydroxy-cyclopentyl)-propionamide trifluoroacetate] | 8.52
2 | CCC(=O)N[C@H]1C[C@@H](n2cnc3c(NCCc4ccccc4-c4ccccc4)nc(N4CC[C@@H](NC(=O)N[C@@H]5CCNC5)C4)nc32)[C@H](O)[C@@H]1O [Example 17, N-((1S,2R,3S,4R)-4-{6-(2-biphenyl-2-yl-ethylamino)-2-[(R)-3-((R)-3-pyrrolidin-3-ylureido)-pyrrolidin-1-yl]-purin-9-yl}-2,3-dihydroxy-cyclopentyl)-propionamide trifluoroacetate] | 7.96
3 | CCC(=O)N[C@H]1C[C@@H](n2cnc3c(NCC(c4ccc(OC)c(OC)c4)c4ccc(OC)c(OC)c4)nc(N4CC[C@@H](NC(=O)N[C@@H]5CCNC5)C4)nc32)[C@H](O)[C@@H]1O [Example 19, N-((1S,2R,3S,4R)-4-{6-[2,2-bis-(3,4-dimethoxy-phenyl)-ethylamino]-2-[(R)-3-((R)-3-pyrrolidin-3-ylureido)-pyrrolidin-1-yl]-purin-9-yl}-2,3-dihydroxy-cyclopentyl)-propionamide trifluoroacetate] | 8.10

Further molecules by rising pKi, results first:

Row | pKi | SMILES
4 | 8.15 | CCC(=O)N[C@H]1C[C@@H](n2cnc3c(NCC(c4ccccc4)c4ccc(F)cc4)nc(NC4CCC(N)CC4)nc32)[C@H](O)[C@@H]1O (stereo partly drawn) [Example 38, N-((1S,2R,3S,4R)-4-{2-(4-Amino-cyclohexylamino)-6-[2-(4-fluoro-phenyl)-2-phenyl-ethylamino]-purin-9-yl}-2,3-dihydroxy-cyclopentyl)-propionamide trifluoroacetate]
5 | 8.70 | CCC(=O)N[C@H]1C[C@@H](n2cnc3c(NCC(c4ccccc4)c4ccc(F)cc4)nc(N4CC[C@@H](NC(=O)N[C@@H]5CCNC5)C4)nc32)[C@H](O)[C@@H]1O (stereo partly drawn) [Example 8, N-((1S,2R,3S,4R)-4-{6-[2-(4-fluoro-phenyl)-2-phenyl-ethylamino]-2-[(R)-3-((R)-3-pyrrolidin-3-ylureido)-pyrrolidin-1-yl]-purin-9-yl}-2,3-dihydroxy-cyclopentyl)-propionamide trifluoroacetate]
